Active and inactive are the calls of the source. The calls are words filed in the database; no cut-off is given here.

The species entered for one assay is Oryctolagus cuniculus. Description: Inhibition of rabbit GSKbeta assessed as [32P]-phosphorylation of substrate up to 50 uM after 1 hr by scintillation counting.
Assay [1] in a line: Inhibition of rabbit GSKbeta assessed as [32P]-phosphorylation of substrate after 1 hr by scintillation counting. The arrangement: species or system Oryctolagus cuniculus.

For the molecule `CC(O)C[C@H](O)[C@H](O)C[C@H](O)CCC(=O)NCCS(=O)(=O)O` (some centres undefined), the inhibition entry in the assay filed under Oryctolagus cuniculus was “inactive”. On to `CCCCC/C=C/C(O)CCCCC/C=C/C(O)CCCCCCCC(=O)OC(C)C[C@H](O)[C@H](O)C[C@H](O)CCC(=O)NCCS(=O)(=O)O` (mixture of isomers) [CARTERIOSULFONIC ACID A], for which the half-inhibitory concentration (IC50) in assay [1] is 12.5 µM. For `CCCCC/C=C/C(O)CCCCCCCCCCCCCC(=O)OC(C)C[C@H](O)[C@H](O)C[C@H](O)CCC(=O)NCCS(=O)(=O)O` (mixture of isomers) [CARTERIOSULFONIC ACID C], the IC50 in assay [1] was found to be 6.8 µM. `CCCCC/C=C/C(O)CCCCC/C=C/C(CCCCCCCC(=O)OC(C)C[C@H](O)[C@H](O)C[C@H](O)CCC(=O)NCCS(=O)(=O)O)OC(C)=O` (some centres undefined) [CARTERIOSULFONIC ACID B]: the half-inhibitory concentration (IC50) in assay [1] was 6.8 µM.

The values above are taken from ChEMBL document CHEMBL1154308, “Carteriosulfonic acids A-C, GSK-3beta inhibitors from a Carteriospongia sp” (J Nat Prod, 2009).
